pIC50: −log10 of the molar value. Activity calls are given as the source filed them.
Legend:
HL-60 [1] = assay: Cell cycle arrest in human HL60 cells assessed as accumulation at sub-G1 phase at 10 uM after 12 hrs using propidium iodide staining by flow cytometry (reference value: 5.2%); format: functional
HL-60 [2] = assay: Induction of apoptosis in human HL60 cells assessed as increase of ROS production using H2DCFDA after 3 hrs by flow cytometry in presence of N-acetylcysteine; format: functional, cell-based
HL-60 [3] = assay: Induction of apoptosis in human HL60 cells assessed as formation of cell shrinkage at 10 uM after 24 hrs by fluorescence microscopic analysis; format: functional, cell-based
HL-60 [4] = assay: Induction of apoptosis in human HL60 cells assessed as increase in cytochrome c release from mitochondria to cytosol after 24 hrs by Western blotting; format: functional, cell-based
HL-60 [5] = assay: Induction of apoptosis in human HL60 cells assessed as loss of mitochondrial membrane potential using CMTMRos after 24 hrs by flow cytometry; format: functional, cell-based
HL-60 [6] = assay: Induction of apoptosis in human HL60 cells assessed as increase in Bax protein level after 24 hrs by Western blotting; format: functional, cell-based
HL-60 [7] = assay: Induction of apoptosis in human HL60 cells assessed as increase of caspase-3-mediated Ac-DEVD-pNA cleavage at 10 uM after >12 hrs; format: functional, cell-based
HL-60 [8] = assay: Cell cycle arrest in human HL60 cells assessed as accumulation at sub-G1 phase at 10 uM after 24 hrs using propidium iodide staining by flow cytometry in presence of N-acetylcysteine; format: functional
HL-60 [9] = assay: Cell cycle arrest in human HL60 cells assessed as accumulation at G2/M phase at 10 uM after 24 hrs using propidium iodide staining by flow cytometry; format: functional, cell-based
HL-60 [10] = assay: Cell cycle arrest in human HL60 cells assessed as accumulation at G0/G1 phase at 10 uM after 24 hrs using propidium iodide staining by flow cytometry; format: functional, cell-based
HL-60 [11] = assay: Induction of apoptosis in human HL60 cells assessed as increase of ROS production using H2DCFDA after 3 hrs by flow cytometry; format: functional, cell-based
HL-60 [12] = assay: Cytotoxicity against human HL60 cells after 24 hrs by MTT assay; format: functional, cell-based
HL-60 [13] = assay: Induction of apoptosis in human HL60 cells assessed as formation of membrane blebbing at 10 uM after 24 hrs by fluorescence microscopic analysis; format: functional, cell-based
HL-60 [14] = assay: Cell cycle arrest in human HL60 cells assessed as accumulation at sub-G1 phase after 12 to 24 hrs using propidium iodide staining by flow cytometry; format: functional, cell-based
HL-60 [15] = assay: Cell cycle arrest in human HL60 cells assessed as accumulation at sub-G1 phase at 5 uM after 12 hrs using propidium iodide staining by flow cytometry (reference value: 5.2%); format: functional
HL-60 [16] = assay: Induction of apoptosis in human HL60 cells assessed as formation of chromatin condensation at 10 uM after 24 hrs by Hoechst 33342 and propidium iodide staining; format: functional, cell-based
HL-60 [17] = assay: Induction of apoptosis in human HL60 cells assessed as increase in Bak protein level after 24 hrs by Western blotting; format: functional, cell-based
HL-60 [18] = assay: Induction of apoptosis in human HL60 cells assessed as increase of caspase-3-mediated Ac-DEVD-pNA cleavage at 10 uM after 12 hrs; format: functional, cell-based
HL-60 [19] = assay: Cell cycle arrest in human HL60 cells assessed as accumulation at sub-G1 phase at 5 to 10 uM using propidium iodide staining by flow cytometry; format: functional, cell-based; settings: TDE = time-dependent effect
HL-60 [20] = assay: Cell cycle arrest in human HL60 cells assessed as accumulation at sub-G1 phase at 5 uM after 24 hrs using propidium iodide staining by flow cytometry (reference value: 6.6%); format: functional
HL-60 [21] = assay: Induction of apoptosis in human HL60 cells assessed as decrease in Bcl-2 protein level at 5 to 10 uM after 24 hrs by Western blotting; format: functional, cell-based
HL-60 [22] = assay: Induction of apoptosis in human HL60 cells assessed as formation of apoptotic body at 10 uM after 24 hrs by fluorescence microscopic analysis; format: functional, cell-based
HL-60 [23] = assay: Cell cycle arrest in human HL60 cells assessed as accumulation at sub-G1 phase at 10 uM after 24 hrs using propidium iodide staining by flow cytometry (reference value: 6.6%); format: functional

Cc1cc(O)c2c(c1)C(=O)C=CC2=O [RAMENTACEONE]
27.5%: Activity (HL-60 [23])
12.3%: Activity (HL-60 [8])
10.3%: Activity (HL-60 [15])
17.1%: Activity (HL-60 [1])
inactive: Activity (HL-60 [2]) | Activity (HL-60 [7])
active: Activity (HL-60 [3]) | Activity (HL-60 [4]) Dose-dependent effect | Activity (HL-60 [5]) Dose-dependent effect | Activity (HL-60 [6]) Dose-dependent effect | Activity (HL-60 [9]) | Activity (HL-60 [10]) | Activity (HL-60 [11]) Dose-dependent effect | Activity (HL-60 [12]) Dose-dependent effect | Activity (HL-60 [13]) | Activity (HL-60 [14]) Dose-dependent effect | Activity (HL-60 [16]) | Activity (HL-60 [17]) Dose-dependent effect | Activity (HL-60 [18]) | Activity (HL-60 [19]) tde | Activity (HL-60 [21]) | Activity (HL-60 [22])
5.06: pIC50 (HL-60 [12]; HL-60, 24 h)
12.6%: Activity (HL-60 [20])
